Reference: patent US9549895B2, “Methods and compositions for preserving the viability of photoreceptor cells” (Massachusetts Eye and Ear Infirmary, priority 2004, dated 2017)
“And” between values parts separate entries of the source, which are not always exact repeats. Equal entries are not always repeated.

Tests used:
[1] = test system: photoreceptor cell death (TUNEL-positive response in the ONL); assay: TUNEL analysis 72 hours after retinal detachment with subretinal TNF-alpha suppressing agents; assay type: in vivo, rat; conditions: subretinal 5 μl, 2 mg/mL, FIG. 12
Protocol: Retinal detachments were created only in the right eye of each animal, and the left eye served as a control. Following retinal detachment, various treatments were administered subretinally using a Hamilton syringe equipped with a 32-gauge needle. The tip of needle was introduced through a sclerotomy and retinal hole into the subretinal space, and 5 μl of solution, either normal goat serum (0.1 mg/mL), goat anti-TNF-alpha antibody (0.1 mg/mL), or etanercept (2 mg/mL), was injected over 3 minutes. Seventy-two hours after retinal detachment, the eyes were subjected to TUNEL analysis.

[2] = test system: photoreceptor cell death (TUNEL-positive cells in the ONL); assay: TUNEL staining 24 hours after retinal detachment with subretinal administration of cytokines; assay type: in vivo, rat; conditions: subretinal 5 μl of 0.1 μg/μl, PBS control 15.3±5.4, n=7
Protocol: Retinal detachment was induced by subretinal injection of sodium hyaluronate. Retinal tissues were collected at various time points (1, 3, 6, 24, 72 hours) after inducing retinal detachment. Neural retina was homogenized, and mRNA expression was quantified by QPCR. To identify the cellular sources of expressed genes, samples from various retinal layers were obtained using LCM. Immunohistochemistry and Enzyme Linked-Immuno-Sorbent Assay (ELISA) were performed to show expressional changes of proteins. TUNEL staining was used in order to assess photoreceptor death induced by retinal detachment with or without subretinal administration of cytokines.
Fifty-five adult male Brown Norway rats (200-300 g, Charles River, Boston, Mass.) were used in this study. Rats were anesthetized with a 1:1 mixture of ketamine (100 mg/mL) and xylazine (20 mg/mL; both from Phoenix Pharmaceutical, St. Joseph, Mo.). Pupils were dilated with a topically applied mixture of phenylephrine (5.0%) and tropicamide (0.8%; Massachusetts Eye and Ear Infirmary internal formulary preparation). A sclerotomy was created approximately 2 mm posterior to the limbus with a 22-gauge needle. Care was taken not to damage the lens during creation of the sclerotomy. A Glaser subretinal injector (20-gauge shaft with a 32-gauge tip, BD Biosciences, San Jose, Calif.) connected to a syringe filled with 10 mg/mL Healon® sodium hyaluronate (Pharmacia and Upjohn Co., Kalamazoo, Mich.) was then introduced into the vitreous cavity. […]
Subretinal administration of select cytokines was performed following the creation of retinal detachment. […] TUNEL-positive cells were counted in a masked fashion, and standard error was determined.
To investigate effects of cytokines on photoreceptor cell death induced by retinal detachment, TUNEL staining was performed 24 hours after retinal detachment with subretinal administration of PBS, TNF-alpha (0.1 μg/μl), IL-1 beta (0.1 μg/μl), or MCP-1 (0.1 μg/μl). […] In the control condition with PBS, TUNEL-positive cells were detected in the ONL 24 hours after retinal detachment (15.3±5.4 cells/field, n=7). […]

caspase 1 = target: T1, caspase 1 (Homo sapiens, UniProt P29466); conditions: cited from earlier work
T1 sequence (P29466 120-297 limits assumed): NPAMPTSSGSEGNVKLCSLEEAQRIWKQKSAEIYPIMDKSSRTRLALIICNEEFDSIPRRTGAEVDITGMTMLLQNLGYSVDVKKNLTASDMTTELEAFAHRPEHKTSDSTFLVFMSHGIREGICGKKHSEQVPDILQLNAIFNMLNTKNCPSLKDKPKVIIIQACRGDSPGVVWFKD
T1 sequence (P29466 317-404 limits assumed): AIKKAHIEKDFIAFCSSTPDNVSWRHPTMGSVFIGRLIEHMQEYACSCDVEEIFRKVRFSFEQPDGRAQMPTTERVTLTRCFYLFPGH

caspase 4 = target: T2, caspase 4 (Homo sapiens, UniProt P49662); conditions: cited from earlier work
T2 sequence (P49662 81-270 limits assumed): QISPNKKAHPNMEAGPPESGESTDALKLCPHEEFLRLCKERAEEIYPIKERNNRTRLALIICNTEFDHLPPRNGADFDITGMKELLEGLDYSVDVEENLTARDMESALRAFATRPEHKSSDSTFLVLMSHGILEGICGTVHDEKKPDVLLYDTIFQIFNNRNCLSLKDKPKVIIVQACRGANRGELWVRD
T2 sequence (P49662 290-377 limits assumed): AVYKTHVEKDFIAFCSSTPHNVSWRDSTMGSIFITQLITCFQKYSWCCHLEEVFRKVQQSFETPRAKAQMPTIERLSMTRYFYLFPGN

caspase 7 = target: T3, caspase 7 (Homo sapiens, UniProt P55210); conditions: cited from earlier work
T3 sequence (P55210 24-198 limits assumed): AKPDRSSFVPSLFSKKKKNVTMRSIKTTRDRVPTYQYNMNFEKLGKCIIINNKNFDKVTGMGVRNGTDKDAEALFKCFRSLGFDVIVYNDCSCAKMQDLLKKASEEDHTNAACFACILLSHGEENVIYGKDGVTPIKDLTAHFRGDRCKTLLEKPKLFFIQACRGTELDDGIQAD
T3 sequence (P55210 207-303 limits assumed): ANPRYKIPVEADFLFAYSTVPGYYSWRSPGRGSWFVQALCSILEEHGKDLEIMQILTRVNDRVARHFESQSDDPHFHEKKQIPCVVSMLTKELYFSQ

caspase 3 = target: T4, caspase 3 (Homo sapiens, UniProt P42574); conditions: cited from earlier work
T4 sequence (P42574 29-175 limits assumed): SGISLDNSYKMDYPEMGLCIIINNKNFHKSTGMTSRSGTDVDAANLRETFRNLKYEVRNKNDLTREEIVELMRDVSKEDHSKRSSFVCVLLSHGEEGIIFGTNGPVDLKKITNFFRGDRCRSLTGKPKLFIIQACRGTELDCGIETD
T4 sequence (P42574 176-277 limits assumed): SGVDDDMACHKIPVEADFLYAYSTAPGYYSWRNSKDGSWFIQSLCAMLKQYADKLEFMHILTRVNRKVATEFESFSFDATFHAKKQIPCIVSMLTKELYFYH

[3] = test system: photoreceptor cell death (TUNEL-positive cells); assay: TUNEL staining 72 hours after retinal detachment with intravitreal or subretinal PEDF; assay type: in vivo, rat; conditions: for difference in number of TUNEL-positive cells, intravitreally-injected control eyes versus intravitreally-injected PEDF eyes: intravitreal; for Number of TUNEL-Positive Cells, Mean: 72 hours
Protocol: In these experiments, retinal detachments were created in Brown Norway rats by injecting […] into the subretinal space using a transvitreous approach. Treatment with PEDF (BioProducts MD, Middletown, Md.) or control vehicle was administered immediately after detachment. In an initial set of experiments, the treatment groups included: intravitreal administration of 2.5 μg PEDF (n=6); intravitreal administration of 5.0 μg PEDF (n=9); subretinal administration of 2.5 μg PEDF (n=6); subretinal administration of 5.0 μg PEDF (n=9); intravitreal administration of control vehicle (n=3); and subretinal administration of control vehicle (n=3). In a second set of experiments, the treatment groups included: intravitreal administration of 5.0 μg PEDF (n=15); subretinal administration of 5.0 μg PEDF (n=15); intravitreal administration of control vehicle (n=9); and subretinal administration of control vehicle (n=9).
(§1) For both sets of experiments, all eyes were enucleated 72 hours after retinal detachment and embedded in paraffin. Four micron sections through the area of detachment, including the optic nerve, were obtained. Light microscopy was performed at 3× and at 32× magnification using hematoxylin-eosin staining. TUNEL staining was performed using a commercial kit (Oncogene, San Diego, Calif.) and viewed at 20× magnification using green fluorescein staining for TUNEL and blue DAPI nuclear staining. TUNEL-positive cells were counted per millimeter of tissue by a masked observer. The mean number of TUNEL-positive cells per millimeter of tissue was determined by averaging the number of TUNEL-positive cells per mm of tissue in three sections of each eye. Additionally, a realtime polymerase chain reaction (PCR) was performed for a variety of cytokines, including bFGF, TNF-alpha, and IL-1 beta, on extracted retina from normal eyes (n=6), untreated eyes with retinal detachment (n=6), PEDF-treated eyes with retinal detachment (n=6) and PBS-treated eyes with retinal detachment (n=6).

[4] = test system: mRNA levels of bFGF, TNF-alpha, IL-1 beta; assay: Realtime PCR of cytokine mRNA in detached retina after intravitreal PEDF; assay type: in vivo, rat; conditions: 5.0 μg intravitreal injection just after detachment versus PBS control; FIG. 16
Protocol: as §1
A realtime PCR was performed for a variety of cytokines, including bFGF, PEDF, TNF-alpha, IL-1 beta, HGF, CNTF, TGF beta, and IGF 1. The amount of each mRNA from each of six eyes treated with a 5.0 μg intravitreal injection of PEDF just after detachment was averaged. […]

For etanercept, the “TUNEL-positive response in the ONL as compared to controls” value [1] was “significantly decreased”.

For TNF-alpha, the “number of TUNEL-positive cells in the ONL” value (shortened to “number … in the ONL”) [2] was “did not change significantly”.

In the case of “MCP-1: rat recombinant MCP-1 administered subretinally”, the “number … in the ONL” value [2] is reported as 67.7±46.5 cells/field.

In the case of Ac-Tyr-Val-Ala-Asp-aldehyde, the Ki (caspase 1) is listed as 10 nM, the Ki (caspase 4) is listed as 10 nM and the Ki (caspase 7) is listed as no less than 50 µM. For the same molecule, the Ki (caspase 3) was no less than 50 µM.

For 2-Val-Ala-Asp-fluoromethylketone, the caspase inhibition (caspase 1) is given as “inhibits”, the caspase inhibition (caspase 4) is given as “inhibits” and the caspase inhibition (caspase 7) is given as “inhibits”. The caspase inhibition (caspase 3) was “inhibits”.

B1: IL-1 beta: rat recombinant IL-1 beta administered subretinally (protein, UniProt Q63264 117-268, looked up)
Interleukin-1 beta: VPIRQLHCRLRDEQQKCLVLSDPCELKALHLNGQNISQQVVFSMSFVQGETSNDKIPVALGLKGLNLYLSCVMKDGTPTLQLESVDPKQYPKKKMEKRFVFNKIEVKTKVEFESAQFPNWYISTSQAEHRPVFLGNSNGRDIVDFTMEPVSS
For B1, the “number … in the ONL” value [2] was “did not change significantly”.

B2: PEDF: pigment epithelium-derived factor (BioProducts MD), neurotrophic factor (protein, UniProt P36955 20-418, looked up)
Pigment epithelium-derived …: QNPASPPEEGSPDPDSTGALVEEEDPFFKVPVNKLAAAVSNFGYDLYRVRSSTSPTTNVLLSPLSVATALSALSLGAEQRTESIIHRALYYDLISSPDIHGTYKELLDTVTAPQKNLKSASRIVFEKKLRIKSSFVAPLEKSYGTRPRVLTGNPRLDLQEINNWVQAQMKGKLARSTKEIPDEISILLLGVAHFKGQWVTKFDSRKTSLEDFYLDEERTVRVPMMSDPKAVLRYGLDSDLSCKIAQLPLTGSMSIIFFLPLKVTQNLTLIEESLTSEFIHDIDRELKTVQAVLTVPKLKLSYEGEVTKSLQEMKLQSLFDSPDFSKITGKPIKLTQVEHRAGFEWNEDGAGTTPSPGLQPAHLTFPLDYHLNQPFIFVLRDTDTGALLFIGKILDPRGP
With B2 the “difference in number of TUNEL-positive cells, intravitreally-injected control eyes versus intravitreally-injected PEDF eyes” value ([3]; initial set of experiments) was “no statistically significant difference”, the “Number of TUNEL-Positive Cells, Mean” value ([3]; initial set of experiments, intravitreal 2.5 μg, control 23.3) was 16.9 TUNEL-positive cells per millimeter of tissue and the “Number of TUNEL-Positive Cells, Mean” value ([3]; initial set of experiments, intravitreal 5.0 μg, control 23.3) was 28.4 TUNEL-positive cells per millimeter of tissue. The “Number of TUNEL-Positive Cells, Mean” value ([3]; initial set of experiments, subretinal 2.5 μg, control 63.8) was 17.6±15.5 TUNEL-positive cells per millimeter of tissue and 17.7 TUNEL-positive cells per millimeter of tissue, the “Number of TUNEL-Positive Cells, Mean” value ([3]; initial set of experiments, subretinal 5.0 μg, control 63.8) was 30.4±18.1 TUNEL-positive cells per millimeter of tissue and 30.4 TUNEL-positive cells per millimeter of tissue and the “effect on photoreceptor cell death following retinal detachment as measured using TUNEL” value ([3]; larger sample set, either subretinally or intravitreally) was “no significant effect”. The “difference in number of TUNEL-positive cells, intravitreally-injected control eyes versus intravitreally-injected PEDF eyes” value ([3]; second set of experiments) was “no statistically significant difference”, the “Number of TUNEL-Positive Cells, Mean” value ([3]; second set of experiments, intravitreal 5.0 μg, control 30.2) was 30.3 TUNEL-positive cells per millimeter of tissue and the “effect on mRNA levels of bFGF, TNF-alpha, IL-1 beta, or any of the cytokines measured” value [4] was “does not significantly alter”.
